Source: patent US20260374739A1, “SMALL MOLECULAR WEIGHT CHEMICAL COMPOUND TO ANTAGONIZE EPH-EPHRIN TETRAMERIZATION AND INHIBIT BIDIRECTIONAL SIGNALING” (THE BOARD OF REGENTS OF THE UNIVERSITY OF TEXAS SYSTEM, priority 2022, published 2026)
Several values for one entry are separate records, joined by “and”; a condition that tells them apart may be missing. Equal values may be shown once. Read-outs that look alike come from different tables or passages of the source. Marks after values point to notes of the source that are not given here.

Key:
EphrinB2-EphB2 [1] = biological target: T1, EphrinB2-EphB2 (Homo sapiens, UniProt P29323); test: Octet tetramerization inhibition, immobilized human EphrinB2 binding to 50 nM soluble human EphB2
T1 construct: soluble human EphB1-His, EphB2-His, and EphB4-His ectodomains; commercially available human EphrinB1-Fc (EB1), EphrinB2-Fc (EB2), and EphrinB3-Fc (EB3) ectodomain proteins; purchased
T1 sequence (P29323 19-543 limits assumed): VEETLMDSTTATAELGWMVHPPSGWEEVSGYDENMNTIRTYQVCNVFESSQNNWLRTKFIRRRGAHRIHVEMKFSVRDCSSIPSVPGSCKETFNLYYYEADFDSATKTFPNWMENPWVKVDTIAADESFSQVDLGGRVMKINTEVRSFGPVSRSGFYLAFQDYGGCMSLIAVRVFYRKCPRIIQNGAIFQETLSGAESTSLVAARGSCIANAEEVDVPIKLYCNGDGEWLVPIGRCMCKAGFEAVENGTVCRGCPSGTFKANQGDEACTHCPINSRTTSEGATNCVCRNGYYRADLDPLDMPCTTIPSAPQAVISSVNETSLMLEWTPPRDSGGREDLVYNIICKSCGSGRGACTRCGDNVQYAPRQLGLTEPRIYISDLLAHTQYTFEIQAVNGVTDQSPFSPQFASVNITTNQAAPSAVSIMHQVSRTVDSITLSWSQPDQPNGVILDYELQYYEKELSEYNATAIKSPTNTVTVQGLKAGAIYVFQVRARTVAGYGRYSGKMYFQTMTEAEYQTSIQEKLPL

EphrinB2-EphB1 = biological target: T2, EphrinB2-EphB1 (Homo sapiens, UniProt P54762); test: Octet 80 sec association/500 sec dissociation, immobilized human EphrinB2-Fc binding to soluble human EphB1-His; conditions: for EphB1 Inhibition Percent, Inhibition of Association ONLY: at 3.2 μM and 80 seconds; for EphB1 Inhibition Percent, Inhibition of Association ONLY / EphB1 Inhibition Percent, Inhibition of Association-Dissociation: immobilized human EphrinB2, 25 nM soluble human EphB1; for EphB1 Inhibition Percent, Inhibition of Association-Dissociation: at 3.2 μM and 580 seconds; for inhibition at 3.2 µM: EphB1, 25 nM EphB1, 3.2 μM compound, A20-I as max control, 0* = less than 0, no inhibition
T2 construct: soluble human EphB1-His, EphB2-His, and EphB4-His ectodomains; commercially available human EphrinB1-Fc (EB1), EphrinB2-Fc (EB2), and EphrinB3-Fc (EB3) ectodomain proteins; purchased
T2 sequence (P54762 18-540 limits assumed): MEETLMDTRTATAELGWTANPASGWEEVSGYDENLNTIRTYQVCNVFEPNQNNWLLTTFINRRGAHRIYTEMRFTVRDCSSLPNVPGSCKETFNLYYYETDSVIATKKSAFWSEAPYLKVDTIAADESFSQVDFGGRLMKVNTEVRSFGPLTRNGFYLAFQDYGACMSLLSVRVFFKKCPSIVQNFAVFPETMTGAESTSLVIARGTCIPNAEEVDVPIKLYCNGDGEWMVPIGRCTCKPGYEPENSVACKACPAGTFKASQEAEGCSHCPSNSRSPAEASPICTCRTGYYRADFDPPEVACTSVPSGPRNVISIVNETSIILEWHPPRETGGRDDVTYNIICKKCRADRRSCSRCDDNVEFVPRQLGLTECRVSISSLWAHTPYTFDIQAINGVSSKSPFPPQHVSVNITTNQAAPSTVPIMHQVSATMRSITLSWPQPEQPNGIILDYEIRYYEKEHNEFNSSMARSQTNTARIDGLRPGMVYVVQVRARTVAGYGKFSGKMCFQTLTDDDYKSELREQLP
Method in brief: (§1)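 EphrinB2-Fc captured on AHC biosensors, then soluble His-tagged EphB ectodomain (25 nM for % inhibition runs) associated 80 s and dissociated 500 s in PBS, 0.05% Tween-20, 1% DMSO ± compound. Compounds tested at 0.1–3.2 μM with a 10 μM max standard; IC50 from AUC of full traces or at 75 s and 135 s.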

EphrinB2-EphB2 [2] = biological target: T1, EphrinB2-EphB2; test: Octet 80 sec association/500 sec dissociation, immobilized human EphrinB2-Fc binding to soluble human EphB2-His; conditions: for EphB2 Inhibition Percent, Inhibition of Association ONLY: at 3.2 μM and 80 seconds; for EphB2 Inhibition Percent, Inhibition of Association ONLY / EphB2 Inhibition Percent, Inhibition of Association-Dissociation: immobilized human EphrinB2, 25 nM soluble human EphB2; for EphB2 Inhibition Percent, Inhibition of Association-Dissociation: at 3.2 μM and 580 seconds; for inhibition at 3.2 µM: EphB2, 25 nM EphB2, 3.2 μM compound, A20-I as max control, 0* = less than 0, no inhibition
Method in brief: as §1

EphrinB2-EphB4 = biological target: T3, EphrinB2-EphB4 (Homo sapiens, UniProt P54760); test: Octet 80 sec association/500 sec dissociation, immobilized human EphrinB2-Fc binding to soluble human EphB4-His; conditions: for EphB4 Inhibition Percent, Inhibition of Association ONLY: at 3.2 μM and 80 seconds; for EphB4 Inhibition Percent, Inhibition of Association ONLY / EphB4 Inhibition Percent, Inhibition of Association-Dissociation: immobilized human EphrinB2, 25 nM soluble human EphB4; for EphB4 Inhibition Percent, Inhibition of Association-Dissociation: at 3.2 μM and 580 seconds; for inhibition at 3.2 µM: EphB4, 25 nM EphB4, 3.2 μM compound, A20-I as max control, 0* = less than 0, no inhibition
T3 construct: soluble human EphB1-His, EphB2-His, and EphB4-His ectodomains; commercially available human EphrinB1-Fc (EB1), EphrinB2-Fc (EB2), and EphrinB3-Fc (EB3) ectodomain proteins; purchased
T3 sequence (P54760 16-539 limits assumed): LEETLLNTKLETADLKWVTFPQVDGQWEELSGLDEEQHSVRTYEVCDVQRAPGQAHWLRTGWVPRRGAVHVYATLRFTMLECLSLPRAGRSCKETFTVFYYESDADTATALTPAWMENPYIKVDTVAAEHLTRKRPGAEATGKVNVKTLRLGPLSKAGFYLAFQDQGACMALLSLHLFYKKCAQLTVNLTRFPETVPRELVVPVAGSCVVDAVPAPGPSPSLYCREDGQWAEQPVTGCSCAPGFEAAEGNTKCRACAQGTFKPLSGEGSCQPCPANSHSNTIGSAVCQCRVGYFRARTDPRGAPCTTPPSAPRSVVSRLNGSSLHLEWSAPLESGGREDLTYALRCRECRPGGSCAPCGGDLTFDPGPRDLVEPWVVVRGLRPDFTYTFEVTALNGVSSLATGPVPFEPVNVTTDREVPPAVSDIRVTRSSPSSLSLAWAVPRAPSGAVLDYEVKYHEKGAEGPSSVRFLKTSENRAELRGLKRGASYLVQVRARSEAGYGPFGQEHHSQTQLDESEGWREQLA
Method in brief: as §1

[3] = Absolute AUC/IC50, Table A, EphrinB2-EphB2
[4] = Absolute Association IC50 (300 sec), Table A, EphrinB2-EphB2
[5] = Absolute Dissociation IC50 (450 sec), Table A, EphrinB2-EphB2
[6] = Relative Association IC50 (300 sec), Table A, EphrinB2-EphB2
[7] = Relative Dissociation IC50 (450 sec), Table A, EphrinB2-EphB2
[8] = Relative AUC/IC50, Table A, EphrinB2-EphB2, compound 7: association only
[9] = tetramerization inhibitor IC50 (relative), association step, surmountable tetramer
[10] = read-out: % Inhibition: Association + Dissociation (160 sec)
[11] = read-out: % Inhibition: Association ONLY (80 sec)

SMILES | IC50 (EphrinB2-EphB2 [1]; [3]) [nM] | IC50 (EphrinB2-EphB2 [1]; [4]) [nM] | IC50 (EphrinB2-EphB2 [1]; [5]) [nM] | IC50 (EphrinB2-EphB2 [1]; [6]) [nM] | IC50 (EphrinB2-EphB2 [1]; [7]) [nM] | EphB1 Inhibition Percent, Inhibition of Association ONLY (EphrinB2-EphB1) [%] | EphB1 Inhibition Percent, Inhibition of Association-Dissociation (EphrinB2-EphB1) | EphB2 Inhibition Percent, Inhibition of Association ONLY (EphrinB2-EphB2 [2]) | EphB2 Inhibition Percent, Inhibition of Association-Dissociation (EphrinB2-EphB2 [2]) | EphB4 Inhibition Percent, Inhibition of Association ONLY (EphrinB2-EphB4) | EphB4 Inhibition Percent, Inhibition of Association-Dissociation (EphrinB2-EphB4) | IC50 (EphrinB2-EphB2 [1]; [8]) [nM] | tetramerization inhibitor activity (EphrinB2-EphB2 [1]) | IC50 (EphrinB2-EphB2 [1]; [9]) [nM] | other results
Oc1c(Br)cc(CN2CCN(Cc3ccc(Br)cc3)CC2)c2cccnc12 [Compound 45, 7-bromo-5-((4-(4-bromobenzyl)piperazin-1-ium-1-yl)methyl)-8-hydroxyquinolin-1-ium chloride] | 760 | 790 | 720 | 560 | 590 | 37.3 | 49.9% | 62.1% | 77.1% | 4.9% | 28.3% |  |  |  | 
Oc1ccc(CN2CCN(c3ccc(I)cc3)CC2)c2cccnc12 [Compound 32] | > 1600 | > 1600 | > 1600 | 1400 | 1000 | 24.5 | 40.5% | 63.9% | 78.2% | 33.8% | 42.5% | 790 |  |  | 
Oc1c(I)cc(CN2CCN(Cc3ccc(Br)cc3)CC2)c2cccnc12 [Compound 46, 5-((4-(4-bromobenzyl)piperazin-1-yl)methyl)-7-iodoquinolin-8-ol] | 630 | 720 | 690 | 480 | 510 | 51.6 | 57.2% | 53.0% | 69.6% | 18.1% | 32.0% | 520 | exhibit strong IC50 values |  | 
Oc1ccc(CN2CCN(c3ccc(C(F)(F)F)cc3)CC2)c2cccnc12 [Compound 103, 5-((4-(4-(trifluoromethyl)phenyl)piperazin-1-yl)methyl)quinolin-8-ol] |  |  |  |  |  | 16.3 | 33.8% | 10.5% | 27.6% | 0*% | 11.4% |  | eliminated the activity |  | 
COc1ccc(N2CCN(Cc3ccc(O)c4ncccc34)CC2)cc1 [Compound 72, 5-((4-(4-methoxyphenyl)piperazin-1-yl)methyl)quinolin-8-ol] | 2290 | 2510 | 1510 | 1200 | 1070 | 30.0 | 44.5% | 39.4% | 60.2% | 19.8% | 33.2% |  | exhibit strong IC50 values |  | disruption of unsurmountable tetramer (EphrinB2-EphB2 [1]; 0.8-3.2 μM): ability to disrupt some of the unsurmountable tetramer
Nc1ccc(N2CCN(Cc3ccc(O)c4ncccc34)CC2)cc1 [Compound 39, 5-((4-(4-aminophenyl)piperazin-1-yl)methyl)quinolin-8-ol] | 3090 | 3020 | 2830 | 2750 | 2250 |  | 16.9% and 8.0% | 33.9% and 31.2% | 46.4% and 45.6% | 0.4% and 0% | 6.9% and 5.5% | 1700 |  | ~2000 | selectivity among EphrinB2-EphB1/B2/B4 (EphrinB2-EphB4; 3.2 μM): less action toward EphB4 and EphB1 but high specificity for EphB2
O=S1(=O)CCN(Cc2cc(Br)c(O)c3ncccc23)CC1 [Compound 16, 4-((7-bromo-8-hydroxyquinolin-5-yl)methyl)thiomorpholine 1,1-dioxide] |  |  |  |  |  |  |  |  |  |  |  |  |  | ~800 | inhibition at 3.2 µM (EphrinB2-EphB1; [10]): 48%; inhibition at 3.2 µM (EphrinB2-EphB1; [11]): 33%; inhibition of EphrinB2-EphB interactions (EphrinB2-EphB2 [2]; 3.2 μM, EphB1, EphB2 and EphB4): activity similar to A20-I max control; inhibition at 3.2 µM (EphrinB2-EphB2 [2]; [10]): 74.5%; inhibition at 3.2 µM (EphrinB2-EphB2 [2]; [11]): 59.5%; inhibition at 3.2 µM (EphrinB2-EphB4; [10]): 37.2%; inhibition at 3.2 µM (EphrinB2-EphB4; [11]): 18.1%
OCc1ccc2c(CN3CCOCC3)ccc(O)c2n1 [Compound 12, 2-(hydroxymethyl)-5-(morpholinomethyl)quinolin-8-ol] | > 3200 | > 3200 | > 3200 | 2750 | 1480 | 17.4 | 17.4% | 48.1% | 48.1% | 11.0% | 11.0% | > 3200 |  | ~3000 | 
